From patent publication US20090110701A1, “T-CELL MODULATION” (THE UNIVERSITY COURT OF THE UNIVERSITY OF ABERDEEN, priority 2004, published 2009)

Tests used:
Format in all cases: cell-based, human
[1] = tested on: Lymphocytes from patients with autoimmune haemolytic anaemia; assay: Peptide mapping assay for sCTLA-4 production (RhD peptides); conditions: 1 million lymphocytes per peptide, five days at 37° C., seven AIHA patients, FIG. 9
Procedure: Peptide mapping experiments to identify peptides which stimulate sCTLA-4 production were performed as follows. Each peptide (1 to 42) was derived from the RhD autoantigen. Lymphocytes (1 million per peptide) from patients with autoimmune haemolytic anaemia were added to individual peptides and incubated for five days at 37° C. At the end of this period the cell cultures were assessed for an increase in sCTLA-4 production. In these assays a stimulation index of 2 is considered a positive result (twice as much sCTLA-4 detected compared with non-stimulated control).
Certain peptides in some cases stimulated sCTLA-4 production by three, four or even ten times higher than non-stimulated cells alone.

PBMC [2] = assay: Cytokine secretion ELISA (IFN-γ, IL-10, IL-4) of PBMC cultures; conditions: FIG. 5a
Procedure: (§1) Cytokine Secretion ELISA. ELISA were based on previously published methods and were performed from 3-7 days of in vitro cell culture. The following antibody pairs were used: purified mouse anti-IFN-γ (clone NIB42) and biotinylated mouse anti-IFN-γ (clone 4S.B3); purified mouse anti-IL-10 (clone JES3-19F1) and biotinylated mouse anti-IL-10 (clone JES3-12G8); purified mouse anti-IL-4 (clone 8D4-8) and biotinylated mouse anti-IL-4 (clone MP4-25D2) (all from BD Biosciences, Oxford, UK). All recombinant human cytokines (IFN-γ, IL-4, and IL-10) were purchased from Peprotech EC Ltd. (London, UK).

PBMC [3] = assay: sCTLA-4 secretion ELISA, PBMC from healthy adult donors
PBMC [4] = assay: Proliferation assay (3H thymidine incorporation) of PBMC; conditions: FIG. 5a
Procedure: Proliferation Assay. Cell proliferation was assessed by the incorporation of ^3H thymidine, as previously described.

[5] = tested on: PBMC from patients with AIHA; assay: sCTLA-4 and IL-4 secretion by PBMC from AIHA patients incubated with RhD; conditions: one patient from an initial sample of six, FIG. 3
Procedure: FIG. 3. Differential stimulation of sCTLA-4 secretion by PBMC sampled from AIHA patients in response to incubation with RhD protein antigen.
as §1
We also developed a similar secretion ELISA for sCTLA-4 with antibodies identified previously. Briefly, sCTLA-4 was measured in vitro by incubating a capture anti-CTLA-4 antibody (clone: BNI3 2μg ml^−1) in 96 well Nunc Maxisorp plates for 2 hours at 37° C. Plates were washed and blocked with 3% BSA before the addition of test cell culture suspension. […] Developed plates were measured with a Multiskan MS microplate photometer (Life and Laboratory Sciences, Basingstoke, UK) at an absorbance of 405 nm. […]

## SSKYPRSVRRCLPLW [Peptide 1, peptide derived from the RhD autoantigen, residues 2-16]
[1]
  stimulation of sCTLA-4 production (stimulation index versus non-stimulated control; 2 is positive): particularly effective

## anti-CD3 antibody: Stimulatory anti-CD3 antibody (clone OKT3) purified from hybridoma cell culture supernatants
PBMC [2]
  IFN-γ secretion, PPD versus anti-CD3 cultures: similar
  IL-10 secretion, anti-CD3 compared with PPD: increase
PBMC [3]; 12 healthy individuals, FIG. 5b, P<0.01 Wilcoxon for PPD, anti-CD3 data not shown
  sCTLA-4 levels compared with non-stimulated PBMC, all individuals analyzed: invariably reduced
PBMC [3]; individual donor profile, FIG. 5a, 5 days, 37° C., stimulus 5 μg ml−1
  sCTLA-4 levels in vitro compared with non-stimulated PBMC: dramatically reduced
PBMC [4]
  Proliferation, PPD versus anti-CD3 cultures: similar

B1: RhD autoantigen: AIHA-associated autoantigen RhD protein (protein, UniProt Q02161 2-417, looked up)
Blood group Rh(D) polypeptide: SSKYPRSVRRCLPLWALTLEAALILLFYFFTHYDASLEDQKGLVASYQVGQDLTVMAAIGLGFLTSSFRRHSWSSVAFNLFMLALGVQWAILLDGFLSQFPSGKVVITLFSIRLATMSALSVLISVDAVLGKVNLAQLVVMVLVEVTALGNLRMVISNIFNTDYHMNMMHIYVFAAYFGLSVAWCLPKPLPEGTEDKDQTATIPSLSAMLGALFLWMFWPSFNSALLRSPIERKNAVFNTYYAVAVSVVTAISGSSLAHPQGKISKTYVHSAVLAGGVAVGTSCHLIPSPWLAMVLGLVAGLISVGGAKYLPGCCNRVLGIPHSSIMGYNFSLLGLLGEIIYIVLLVLDTVGAGNGMIGFQVLLSIGELSLAIVIALMSGLLTGLLLNLKIWKAPHEAKYFDDQVFWKFPHLAVGF
[5]
  IL-4 secretion compared with negative controls: higher levels
  sCTLA-4 secretion compared with negative controls: higher levels
